Consider 6 compounds from paper PMC8949503, “Radiosynthesis and Preclinical Evaluation of Bispecific PSMA/FAP Heterodimers for Tumor Imaging” (Pharmaceuticals, 2022).

The target of one series is T1, FAP (Homo sapiens, UniProt Q12884).
T1 construct: expressed in transfected cells
T1 sequence (Q12884 1-760): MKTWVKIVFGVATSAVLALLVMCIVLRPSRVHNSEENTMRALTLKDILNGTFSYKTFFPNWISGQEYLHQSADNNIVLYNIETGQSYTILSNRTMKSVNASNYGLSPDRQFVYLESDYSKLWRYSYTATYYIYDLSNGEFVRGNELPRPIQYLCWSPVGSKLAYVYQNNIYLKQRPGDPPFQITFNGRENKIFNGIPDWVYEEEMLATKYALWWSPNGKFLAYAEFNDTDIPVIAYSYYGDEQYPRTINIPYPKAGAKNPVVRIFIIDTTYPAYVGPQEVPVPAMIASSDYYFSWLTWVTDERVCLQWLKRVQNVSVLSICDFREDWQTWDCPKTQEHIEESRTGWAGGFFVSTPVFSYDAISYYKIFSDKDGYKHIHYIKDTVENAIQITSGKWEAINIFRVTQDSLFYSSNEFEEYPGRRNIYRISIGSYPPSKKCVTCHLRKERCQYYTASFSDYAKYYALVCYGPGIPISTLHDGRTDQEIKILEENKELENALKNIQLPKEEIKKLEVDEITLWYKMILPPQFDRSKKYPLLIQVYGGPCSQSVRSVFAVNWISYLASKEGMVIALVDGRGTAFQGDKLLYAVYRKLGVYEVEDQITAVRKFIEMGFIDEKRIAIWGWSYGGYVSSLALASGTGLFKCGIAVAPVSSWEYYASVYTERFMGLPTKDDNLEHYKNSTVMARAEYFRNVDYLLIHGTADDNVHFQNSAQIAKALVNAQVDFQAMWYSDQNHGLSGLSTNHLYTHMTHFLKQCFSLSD
Briefly: competitive binding to FAP on A549-FAP cells vs [18F]FAPI-42. The settings on record: for IC50: competition with [18F]FAPI-42, 60 min 37 °C. The protocol:
(§1) PSMA-positive 22Rv1 cells (purchased from Institute of Biochemistry and Cell Biology, Shanghai, China) and stably FAP-transfected A549-FAP cells (acquired using lentiviral infection) were used for the cell-based experiments. The 22Rv1 cells were cultivated in RPMI-1640 medium (Gibco) at 37 °C/5% carbon dioxide, while the A549-FAP cells were cultivated in DMEM medium. Both media were supplemented with 10% heat-inactivated fetal bovine serum (FBS) and 1% penicillin/streptomycin (Gibco). Puromycin (1 µg/mL) was also added to the media to maintain FAP expression.
(§2) Cells were seeded in 12-well plates 2 days in advance to achieve a final confluence of approximately 80–90% (4–5 × 10^5 cells/well). The medium was displaced by 1 mL fresh medium without FBS. The method of cell studies was similar to a method reported previously. For the competitive binding experiments, cells were incubated with the known radiotracers ([^18F]FAPI-42 for the FAP receptor and [^18F]AlF-PSMA-BCH for PSMA) in the presence of 7 different concentrations (10^−5–10^−11 M) of the corresponding unlabeled heterodimers or corresponding monomer and incubated for 60 min at 37 °C. In all experiments, the cells were washed twice with PBS, lysed with 1 M NaOH, and counted using a γ-counter. IC50 values were calculated by fitting the data using a nonlinear regression algorithm (implemented in SPSS). For the radioligand binding studies, the cells were incubated for 5, 15, 30, 60, or 120 min at 37 °C after the addition of the heterodimer or corresponding monomeric radiotracer radiotracers. The blocking experiments were determined by adding the corresponding competitors (4.4 μM 2-PMPA for 22Rv1 cells and 2.3 μM DOTA-FAPI-04 for A549-FAP cells). Radioactivity was measured using a γ-counter, normalized to 1 million cells (1 mio cells), and calculated as the percentage of the applied dose (%ID/1 mio cells). For the internalization experiments, the cells were incubated with the radiolabeled compound for 60 min, washed twice with 1 mL PBS, and then incubated for 10 min with 1 mL glycine HCl (1 M, pH 2.2) to detach the extracellular bound tracer. Next, the cells were washed with PBS (2.0 mL) and lysed with 1 M NaOH (1.5 mL). The radioactivity of the acid wash solution (extracellularly bound tracer) and cell lysate (internalized tracer) was assessed separately using a γ-counter. For the efflux experiments, the radioactive medium was removed after 60 min incubation and replaced with non-radioactive medium. At predetermined time points of 15, 30, 60, and 120 min, the cells were washed with 1.0 mL PBS three times and then lysed. The radioactivity of the remaining cells was assessed using a γ-counter. Each experiment was conducted three times with three or four replicates per independent experiment.

A further series concerns the target T2, PSMA (Homo sapiens, UniProt Q04609).
T2 construct: PSMA-positive 22Rv1 cells; host or cells: 22Rv1 cells
The series is described as follows: competitive binding to PSMA on 22Rv1 cells vs [18F]AlF-PSMA-BCH. To be noted: for IC50: competition with [18F]AlF-PSMA-BCH, 60 min 37 °C. The protocol:
as §1, §2

For series [1], the system named is 22Rv1 tumor-bearing nude mice. Briefly: tissue biodistribution and blocking in 22Rv1 tumor-bearing nude mice. Format: in vivo. The settings on record: 1 h p.i. The protocol:
(§3) For the biodistribution and micro-PET imaging studies, male BALB/c nude mice (6–8 weeks) were subcutaneously inoculated with 1 × 10^7 22Rv1 or 5 × 10^6 A549-FAP cells in the right shoulder. Mice were imaged or used in the biodistribution studies when the tumor reached 5–10 mm in diameter.
(§4) Mice bearing 22Rv1 or A549-FAP (n = 4 in each group) tumors were euthanized 60 min after intravenous administration of each tracer (740–1480 KBq/mouse). In the blocking group, the same experiment was conducted by co-injecting 50 μg of 2-PMPA for mice bearing 22Rv1 tumors or 50 μg of DOTA-FAPI-04 for mice bearing A549-FAP tumors. The organs of interest and tumors were quickly dissected and weighed. Radioactivity was assessed using a γ-counter and calculated as the percentage injected dose per gram (%ID/g).

In series [2] the test system is A549-FAP tumor-bearing nude mice. The series is described as follows: tissue biodistribution and blocking in A549-FAP tumor-bearing nude mice. Format: in vivo. To be noted: 1 h p.i. The protocol: as §3, §4

Usually IC50 stands for the concentration at which inhibition is half-maximal. Low readings indicate greater potency, high ones weaker potency.

Molecules are shown by their SMILES.

T2 sequence (Q04609 whole entry): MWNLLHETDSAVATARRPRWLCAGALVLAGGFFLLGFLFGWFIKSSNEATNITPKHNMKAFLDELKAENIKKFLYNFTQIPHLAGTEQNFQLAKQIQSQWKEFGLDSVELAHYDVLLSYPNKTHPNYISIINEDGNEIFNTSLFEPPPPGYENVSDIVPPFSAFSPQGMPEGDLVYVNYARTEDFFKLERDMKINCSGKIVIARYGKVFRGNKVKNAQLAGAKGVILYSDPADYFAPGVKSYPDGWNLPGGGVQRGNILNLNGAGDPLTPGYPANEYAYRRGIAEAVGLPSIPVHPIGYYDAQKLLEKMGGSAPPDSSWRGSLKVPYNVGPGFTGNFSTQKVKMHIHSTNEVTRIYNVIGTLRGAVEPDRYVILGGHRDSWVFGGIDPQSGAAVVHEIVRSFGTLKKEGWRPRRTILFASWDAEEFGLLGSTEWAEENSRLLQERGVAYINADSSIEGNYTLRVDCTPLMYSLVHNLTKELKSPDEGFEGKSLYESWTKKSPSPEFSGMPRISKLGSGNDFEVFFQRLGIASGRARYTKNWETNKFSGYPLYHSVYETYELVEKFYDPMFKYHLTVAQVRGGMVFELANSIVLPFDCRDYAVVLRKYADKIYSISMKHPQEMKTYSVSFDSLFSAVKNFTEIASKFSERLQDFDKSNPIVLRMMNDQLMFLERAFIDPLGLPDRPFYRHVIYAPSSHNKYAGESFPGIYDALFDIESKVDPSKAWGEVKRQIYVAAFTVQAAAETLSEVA

With `N#C[C@@H]1CC(F)(F)CN1C(=O)CNC(=O)c1ccnc2ccc(OCCCN3CCN(C(=O)CN4CCN(CC(=O)O)CCN(CC(=O)O)CC4)CC3)cc12` [NOTA-FAPI-42, reference compound], the IC50 on FAP worked out at 14.5 nM.
`O=C(O)CC[C@H](NC(=O)N[C@@H](CCCCNC(=O)[C@@H](Cc1ccc2ccccc2c1)NC(=O)C1CCC(CNC(=O)CN2CCN(CC(=O)O)CCN(CC(=O)O)CC2)CC1)C(=O)O)C(=O)O` (stereo partly drawn) [NOTA-PSMA-BCH, reference compound] displayed an IC50 at PSMA of 2.5 nM.
Take `N#C[C@@H]1CC(F)(F)CN1C(=O)CNC(=O)c1ccnc2ccc(OCCCC(=O)NCCCC[C@H](NC(=O)CN3CCN(CC(=O)O)CCN(CC(=O)O)CC3)C(=O)NCC3CCC(C(=O)N[C@H](Cc4ccc5ccccc5c4)C(=O)NCCCC[C@H](NC(=O)N[C@@H](CCC(=O)O)C(=O)O)C(=O)O)CC3)cc12` (stereo partly drawn) [NOTA-PSMA-FAPI-01]: on FAP, the “fold higher in potency than the monomer NOTA-FAPI-42” value is listed as “approximately 9 fold” and the IC50 amounted to 1.7 nM. Moreover, on PSMA, the “fold less potent than the monomer NOTA-PSMA-BCH” value was “approximately 13 fold” and the IC50 was found to be 33.7 nM.
Regarding `N#C[C@@H]1CC(F)(F)CN1C(=O)CNC(=O)c1ccnc2ccc(OCCCN3CCN(C(=O)CCC(=O)NCCCC[C@H](NC(=O)CN4CCN(CC(=O)O)CCN(CC(=O)O)CC4)C(=O)NCC4CCC(C(=O)N[C@H](Cc5ccc6ccccc6c5)C(=O)NCCCC[C@H](NC(=O)N[C@@H](CCC(=O)O)C(=O)O)C(=O)O)CC4)CC3)cc12` (stereo partly drawn) [NOTA-PSMA-FAPI-02], on FAP, the “fold higher in potency than the monomer NOTA-FAPI-42” value was around 3 fold and the IC50 stood at 5.8 nM. In addition, on PSMA, the “fold less potent than the monomer NOTA-PSMA-BCH” value is recorded as around 4 fold and the IC50 worked out at 9.8 nM.
As for `O=C(O)CC[C@H](NC(=O)N[C@@H](CCCCNC(=O)[C@@H](Cc1ccc2ccccc2c1)NC(=O)C1CCC(CNC(=O)CN2CCN3CCN(CC2)CC(=O)[O][Al]([18F])[O]C(=O)C3)CC1)C(=O)O)C(=O)O` (stereo partly drawn) [[^18F]AlF-PSMA-BCH], in series [1], the “22Rv1 tumor* uptake” value is given as 6.44 ± 1.78 %ID/g, the Blood uptake is listed as 0.56 ± 0.19 %ID/g, the Bone uptake is 0.84 ± 0.39 %ID/g and the Brain uptake came to 0.14 ± 0.04 %ID/g. For the same compound, in series [1], the Gall bladder uptake is reported as 6.62 ± 4.25 %ID/g, the Heart uptake came to 0.45 ± 0.10 %ID/g, the “Kidney* uptake” value was 66.10 ± 18.80 %ID/g and the Liver uptake was 0.47 ± 0.03 %ID/g. In series [1], this compound registered a Lung uptake of 0.86 ± 0.25 %ID/g, a Muscle uptake of 0.31 ± 0.10 %ID/g, a Small intestine uptake of 0.78 ± 0.12 %ID/g and a Spleen uptake of 1.33 ± 0.54 %ID/g. In addition, in series [1], the Stomach uptake came out at 0.41 ± 0.05 %ID/g.
`N#C[C@@H]1CC(F)(F)CN1C(=O)CNC(=O)c1ccnc2ccc(OCCCN3CCN(C(=O)CN4CCN5CCN(CC4)CC(=O)[O][Al]([F])[O]C(=O)C5)CC3)cc12` [[^18F]FAPI-42, reference compound]: in series [2], the A549-FAP tumor uptake was found to be 5.25 ± 0.27 %ID/g, the Blood uptake is on record as 1.52 ± 0.22 %ID/g, the Bone uptake turned out to be 7.29 ± 1.52 %ID/g and the Brain uptake was 0.10 ± 0.01 %ID/g. In series [2], this compound gave a Gall bladder uptake of 10.58 ± 0.83 %ID/g, a Heart uptake of 0.76 ± 0.09 %ID/g, a Kidney uptake of 1.86 ± 0.11 %ID/g and a Liver uptake of 0.83 ± 0.19 %ID/g. In series [2], this compound showed a Lung uptake of 0.96 ± 0.11 %ID/g, a Muscle uptake of 1.86 ± 0.32 %ID/g, a Small intestine uptake of 2.85 ± 0.91 %ID/g and a Spleen uptake of 0.64 ± 0.04 %ID/g. The Stomach uptake in series [2] is listed as 0.56 ± 0.03 %ID/g.
